Reference: patent US11639493B2, “Consortium of bacteria that mineralises lipids, starches and sugars (carbohydrates) and are resistant to lethal doses of thiodicarb (carbamate) and bifenthrin (pyrethroid) for inoculation into organic matter of different origins” (priority 2018, dated 2023)

Legend:
Type in all cases: cell-based
Bacillus subtillis = experiment: Adaptation stages: mortality of Bacillus subtillis on growth media with thiodicarb or bifenthrin; settings: for Resistant to: FINAL: Bacillus subtillis at the end of the adaptation process
Bacillus thuringiensis = experiment: Adaptation stages: mortality of Bacillus thuringiensis on growth media with thiodicarb or bifenthrin; settings: for Resistant to: FINAL: B. Thuringiensis at the end of the adaptation process
Procedure: (§1) Bacteria strains, nitrifiers, phosphorus solubilizers and antagonists for pathogens: • a) Arthrobacter globiformis • b) Bacillus megaterium • c) Bacillus brevis • d) Bacillus thuringiensis Preparation for Stage Development • 1. Glass material is sterilized in an autoclave. • 2. The required amount of growth media is prepared, DFA Agar, Malt Agar (Corn Agar) and (PDA) to obtain viable colonies. • 3. Lethal dose (LD) applied to a hectare is established, for thiodicarb as well as bifenthrin. 10 Petri dishes are prepared with 0.1 LD of thiodicarb of bifenthrin. Dishes are incubated at 25° C. for 72 hours with cold light. Methodology • a. Physical and chemical variables obtained in the research are maintained using traces. Petri dishes are placed inside the laminar flow chamber along with the diluted samples, to seed microorganisms in the dishes, a one ml sample of the strain is taken with an automated pipette, 10^−1 and 10^−2 solutions are performed and each solution is homogenized. • b. Having the petri dishes with the sterile and cold growth media, it is homogenized with 6 right to left movements, 6 clockwise movements, 6 counterclockwise movements and 6 front to back movements over a flat horizontal surface until the inoculum is completely integrated into the media, stand until it solidifies and each dish is covered with parafilm to avoid contamination during incubation. • c. The adapted consortium conditions are kept for the starting media (habitat), humidity, pH, temperature, chemical traceability, lighting and airing, Gram colorations and malachite green for the differentiation and observation of cellular structures. • d. Dishes with thiodicarb and Bifenthrin are placed inside the incubator at 25° C. for 72 hours with a cold light lamp. • e. Inoculated dishes are incubated for 72 hours and the bacteria growth will be recorded, the product concentration impact is determined over the plate growth (12 hours of incubation). • f. The residual impact of the product is reviewed after 7 days in the malt agar and PDA agar media. • g. If there is no growth over 10%, the process is repeated until a mortality under 90% is obtained. • h. The colony diameter is determined using a graduated ruler, data is recorded subtracting the diameter of the seeded dish, from which the effect over the mycelial growth will be determined compared to the control (not poisoned MA, denominated as percentage of inhibition of radial growth (PIRG %). • i. Progress is recorded daily and after 7 days analysis of an acceptable coverage is performed, if not, the procedure is repeated as many times as required. • j. From the 10 Petri dishes for each microorganism, the one with the lowest mortality is the one that will continue with the following study. • k. The study is performed again using this percentage until coverage increases and so on, the addition of thiodicarb and bifenthrin is alternated with the LD in intervals of 0.1 LD; all these experiments have been designed with the experimental strains and a control. • l. With the data obtained from the bacterial growth, the percentage of inhibition of gradual growth is obtained, the data is transformed for its analysis with the expression 2 arc sin. A two-way classification analysis of variance is applied and later the Turkey test is performed using a 5% probability.
(§2) Characteristics for this procedure were recorded during all stages through the following indicators: • a. Growth speed • b. Percentage of inhibition measured in Number of CFU/mm • c. Percentage of poison resistance
Beginning with habitat conditions obtained in the adaptation to organophosphate, organochlorine compounds and mercury from the microorganisms at the E-38 pH: 7.2, Humidity: 52%, thermoresistant (74° C.), […] and facultative anaerobic. These conditions are the starting point to adapt the strain to thiodicarb and bifenthrin. During all stages a cold light lamp will be used to adapt the microorganism to sunlight. […]

Bacillus brevis = experiment: Adaptation stages: mortality of Bacillus brevis on growth media with thiodicarb or bifenthrin; settings: for Resistant to: FINAL: Bacillus brevis at the end of the adaptation process
Procedure: as §1, §2
Beginning with habitat conditions obtained in the adaptation to organophosphate, organochlorine compounds and mercury from the microorganisms at the E-38 pH: 7.2, Humidity: 36%, thermoresistant and facultative anaerobic. These conditions are the starting point to adapt the strain to thiodicarb and bifenthrin.
To adapt this microorganism, 51 stages were performed, beginning the process with the conventional growth media. […]

Arthrobacter globiformis = experiment: Adaptation stages: mortality of Arthrobacter globiformis on growth media with thiodicarb or bifenthrin; settings: for initial mortality: summary of the adaptation tests with increasing concentrations of thiodicarb and bifenthrin
Procedure: as §1, §2
Habitat conditions are maintained, conditions obtained during the adaptation to organophosphorus and organochlorinated compounds and mercury of the microorganism, pH: 7.0, humidity: 35%, Temperature: Thermoresistant. These conditions are the starting point to adapt the strain to the new pollutants: thiodicarb (carbamate) and bifenthrin (pyrethroid). […]

[1] = stages E-5 and E-6, 0.1 LD (0.00000006 gr)
[2] = stages E-7 and E-8, 0.2 LD (0.00000012 gr)
[3] = stages E-13 and E-14, 0.3 LD (0.00000018 gr)
[4] = stages E-21 and E-22, 0.5 LD (0.00000030 gr)
[5] = stages E-29 and E-30, 0.7 LD (0.00000036 gr)
[6] = stages E-37 and E-38, 0.9 LD (0.00000042 gr)
[7] = stages E-45 and E-46, 1.1 LD (0.00000054 gr)
[8] = stage E-1, 0.1 LD (0.0000175 gr), until day 68 of incubation
[9] = stage E-2, 0.1 LD (0.0000175 gr)
[10] = stages E-3 and E-4, 0.2 LD (0.000035 gr)
[11] = stages E-9 and E-10, 0.3 LD (0.000053 gr)
[12] = stages E-11 and E-12, 0.4 LD (0.000070 gr)
[13] = stages E-15 and E-16, 0.4 LD (0.00000024 gr)
[14] = stages E-17 and E-18, 0.5 LD (0.000087 gr)
[15] = stages E-19 and E-20, 0.6 LD (0.00011 gr)
[16] = stages E-23 and E-24, 0.6 LD (0.00000036 gr)
[17] = stages E-25 and E-26, 0.7 LD (0.00012 gr)
[18] = stages E-27 and E-28, 0.8 LD (0.00014 gr)
[19] = stages E-31 and E-32, 0.8 LD (0.00000042 gr)
[20] = stages E-33 and E-34, 0.9 LD (0.00016 gr)
[21] = stages E-35 and E-36, 1 LD (0.00018 gr)
[22] = stages E-39 and E-40, 1 LD (0.00000048 gr)
[23] = stages E-41 and E-42, 1.1 LD (0.00020 gr)
[24] = stages E-43 and E-44, 1.2 LD (0.00022 gr), both stages
[25] = stages E-47 and E-48, 1.2 LD (0.00000060 gr)

Cc1c(COC(=O)[C@@H]2[C@H](/C=C(\Cl)C(F)(F)F)C2(C)C)cccc1-c1ccccc1 (racemic) [bifenthrin, 2-methyl biphenyl-3-ilmetil(2)-(1RS,3RS)-3-(2-chlorine 3,3,3-trifluoropropene)-2,2-dimethyl-cyclo-propane-carboxylate]
Resistant to: FINAL (Bacillus subtillis): 1 LD of
mortality (Bacillus subtillis; [1]): 72 to 71%
mortality (Bacillus subtillis; [2]): 70 to 68%
mortality (Bacillus subtillis; [3]): 65%
mortality (Bacillus subtillis; [4]): 47 to 45%
mortality (Bacillus subtillis; [5]): 25 to 23%
mortality (Bacillus subtillis; [6]): 8 to 6%
Resistant to: FINAL (Bacillus thuringiensis): 1.2 LD of
mortality (Bacillus thuringiensis; [1]): 68 to 65%
mortality (Bacillus thuringiensis; [2]): 64 to 63%
mortality (Bacillus thuringiensis; [3]): 57 to 55%
mortality (Bacillus thuringiensis; [4]): 50 to 45%
mortality (Bacillus thuringiensis; [5]): 36 to 33%
mortality (Bacillus thuringiensis; [6]): 30 to 28%
mortality (Bacillus thuringiensis; [7]): 15 to 12%
Resistant to: FINAL (Bacillus brevis): 1.3 LD of
mortality (Bacillus brevis; [1]): 73%
mortality (Bacillus brevis; [2]): 70 to 68%
mortality (Bacillus brevis; [3]): 67%
mortality (Bacillus brevis; [4]): 55%
mortality (Bacillus brevis; [5]): 44%
mortality (Bacillus brevis; [6]): 26%
mortality (Bacillus brevis; [7]): 20%
mortality (Arthrobacter globiformis; [1]): 84%
mortality (Arthrobacter globiformis; [2]): 75%
mortality (Arthrobacter globiformis; [3]): 70%
mortality (Arthrobacter globiformis; [4]): 56%
mortality (Arthrobacter globiformis; [5]): 40%
mortality (Arthrobacter globiformis; [6]): 25%
initial mortality (Arthrobacter globiformis): ~82%

CS/C(C)=N\OC(=O)N(C)SN(C)C(=O)O/N=C(\C)SC [thiodicarb]
Resistant to: FINAL (Bacillus subtillis): 1 LD of
mortality (Bacillus subtillis; [8]): 82%
mortality (Bacillus subtillis; [9]): 80%
mortality (Bacillus subtillis; [10]): 75 to 72%
mortality (Bacillus subtillis; [11]): 66 to 63%
mortality (Bacillus subtillis; [12]): 64 to 62%
mortality (Bacillus subtillis; [13]): 64 to 60%
mortality (Bacillus subtillis; [14]): 59 to 54%
mortality (Bacillus subtillis; [15]): 52 to 50%
mortality (Bacillus subtillis; [16]): 40 to 35%
mortality (Bacillus subtillis; [17]): 35 to 30%
mortality (Bacillus subtillis; [18]): 28 to 25%
mortality (Bacillus subtillis; [19]): 20 to 18%
mortality (Bacillus subtillis; [20]): 18 to 15%
mortality (Bacillus subtillis; [21]): 12 to 9%
mortality (Bacillus subtillis; [22]): 5%
Resistant to: FINAL (Bacillus thuringiensis): 1.2 LD of
mortality (Bacillus thuringiensis; stages E-1 and E-2, 0.1 LD (0.0000175 gr), until day 45 of incubation): 72 to 70%
mortality (Bacillus thuringiensis; [10]): 70 to 68%
mortality (Bacillus thuringiensis; [11]): 65 to 61%
mortality (Bacillus thuringiensis; [12]): 57 to 55%
mortality (Bacillus thuringiensis; [13]): 52 to 50%
mortality (Bacillus thuringiensis; [14]): 52 to 50%
mortality (Bacillus thuringiensis; [15]): 50 to 45%
mortality (Bacillus thuringiensis; [16]): 44 to 42%
mortality (Bacillus thuringiensis; [17]): 44 to 40%
mortality (Bacillus thuringiensis; [18]): 36 to 35%
mortality (Bacillus thuringiensis; [19]): 30 to 28%
mortality (Bacillus thuringiensis; [20]): 30%
mortality (Bacillus thuringiensis; [21]): 25%
mortality (Bacillus thuringiensis; [22]): 18 to 17%
mortality (Bacillus thuringiensis; [23]): 18 to 17%
mortality (Bacillus thuringiensis; [24]): 14%
mortality (Bacillus thuringiensis; [25]): 10 to 7%
Resistant to: FINAL (Bacillus brevis): 1.3 LD of
mortality (Bacillus brevis; [8]): 82%
mortality (Bacillus brevis; [9]): 78%
mortality (Bacillus brevis; [10]): 72%
mortality (Bacillus brevis; [11]): 68%
mortality (Bacillus brevis; [12]): 67%
mortality (Bacillus brevis; [13]): 60%
mortality (Bacillus brevis; [14]): 59 to 54%
mortality (Bacillus brevis; [15]): 55%
mortality (Bacillus brevis; [16]): 51%
mortality (Bacillus brevis; [17]): 50%
mortality (Bacillus brevis; [18]): 46%
mortality (Bacillus brevis; [19]): 42%
mortality (Bacillus brevis; [20]): 38%
mortality (Bacillus brevis; [21]): 28%
mortality (Bacillus brevis; [22]): 20%
mortality (Bacillus brevis; [23]): 28%
mortality (Bacillus brevis; [24]): 22%
mortality (Bacillus brevis; [25]): 12%
mortality (Bacillus brevis; stages E-49 and E-50, 1.3 LD (0.00024 gr)): 10%
mortality (Arthrobacter globiformis; stages E-1 and E-2, 0.1 LD (0.0000175 gr) in growth media, until incubation day 45): 86%
mortality (Arthrobacter globiformis; [10]): 66 to 80%
mortality (Arthrobacter globiformis; [11]): 74%
mortality (Arthrobacter globiformis; [12]): 71%
mortality (Arthrobacter globiformis; [13]): 62%
mortality (Arthrobacter globiformis; [14]): 63%
mortality (Arthrobacter globiformis; [15]): 58%
mortality (Arthrobacter globiformis; [16]): 48%
mortality (Arthrobacter globiformis; [17]): 48%
mortality (Arthrobacter globiformis; [18]): 40%
mortality (Arthrobacter globiformis; [19]): 36%
mortality (Arthrobacter globiformis; [20]): 32%
mortality (Arthrobacter globiformis; [21]): 25%
mortality (Arthrobacter globiformis; [22]): 18%
initial mortality (Arthrobacter globiformis): ~82%
